Results: ChEMBL document CHEMBL4507274 (2021)

Assays:
[1] = target: Vascular endothelial growth factor receptor 1 (Homo sapiens) (UniProt P17948); settings: Compound concentration 100.0 nM
[2] = target: Casein kinase I isoform gamma-2 (Homo sapiens) (UniProt P78368); settings: Compound concentration 100.0 nM
[3] = target: T1, Protein kinase C epsilon type (Homo sapiens) (UniProt Q02156); settings: Compound concentration 100.0 nM
T1 sequence (whole entry): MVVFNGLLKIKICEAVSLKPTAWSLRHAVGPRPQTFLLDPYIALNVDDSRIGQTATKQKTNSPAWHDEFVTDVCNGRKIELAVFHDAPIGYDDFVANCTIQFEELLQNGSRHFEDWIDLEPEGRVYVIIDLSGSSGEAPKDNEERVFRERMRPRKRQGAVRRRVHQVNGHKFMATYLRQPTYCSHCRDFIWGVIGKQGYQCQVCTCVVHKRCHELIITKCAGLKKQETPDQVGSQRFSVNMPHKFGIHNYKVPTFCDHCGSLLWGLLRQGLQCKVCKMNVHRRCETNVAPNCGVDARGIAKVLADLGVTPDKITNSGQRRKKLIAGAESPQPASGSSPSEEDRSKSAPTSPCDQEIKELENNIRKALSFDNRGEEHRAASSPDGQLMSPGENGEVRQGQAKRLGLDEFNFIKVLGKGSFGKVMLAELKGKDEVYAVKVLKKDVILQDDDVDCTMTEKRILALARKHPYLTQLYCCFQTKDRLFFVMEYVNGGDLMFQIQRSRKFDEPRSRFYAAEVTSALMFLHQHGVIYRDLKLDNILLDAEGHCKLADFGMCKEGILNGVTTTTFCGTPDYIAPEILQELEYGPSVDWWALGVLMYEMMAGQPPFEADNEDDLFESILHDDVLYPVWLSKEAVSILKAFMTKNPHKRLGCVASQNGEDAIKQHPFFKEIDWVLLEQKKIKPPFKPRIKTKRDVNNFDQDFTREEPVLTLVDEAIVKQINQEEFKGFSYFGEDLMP

[4] = target: Ephrin type-A receptor 3 (Homo sapiens) (UniProt P29320); settings: Compound concentration 100.0 nM
[5] = target: Serine/threonine-protein kinase Nek9 (Homo sapiens) (UniProt Q8TD19); settings: Compound concentration 100.0 nM
[6] = target: Muscle, skeletal receptor tyrosine-protein kinase (Homo sapiens) (UniProt O15146); settings: Compound concentration 100.0 nM
[7] = target: Dual specificity tyrosine-phosphorylation-regulated kinase 1A (Homo sapiens) (UniProt Q13627); settings: Compound concentration 100.0 nM
[8] = target: Tyrosine-protein kinase Mer (Homo sapiens) (UniProt Q12866); settings: Compound concentration 100.0 nM
[9] = target: Serine/threonine-protein kinase SIK3 (Homo sapiens) (UniProt Q9Y2K2); settings: Compound concentration 100.0 nM
[10] = tested on: Tyrosine-protein kinase ABL1 (Homo sapiens), P00519 [H396P]; settings: Compound concentration 100.0 nM
[11] = target: Serine/threonine-protein kinase 4 (Homo sapiens) (UniProt Q13043); settings: Compound concentration 100.0 nM
[12] = tested on: Tyrosine-protein kinase ABL1 (Homo sapiens), P00519 [Q252H]; settings: Compound concentration 100.0 nM
[13] = target: Serine/threonine-protein kinase WNK2 (Homo sapiens) (UniProt Q9Y3S1); settings: Compound concentration 100.0 nM
[14] = target: Megakaryocyte-associated tyrosine-protein kinase (Homo sapiens) (UniProt P42679); settings: Compound concentration 100.0 nM
[15] = target: Serine/threonine-protein kinase haspin (Homo sapiens) (UniProt Q8TF76); settings: Compound concentration 100.0 nM
[16] = target: MAP kinase-activated protein kinase 2 (Homo sapiens) (UniProt P49137); settings: Compound concentration 100.0 nM
[17] = target: Mitogen-activated protein kinase kinase kinase kinase 3 (Homo sapiens) (UniProt Q8IVH8); settings: Compound concentration 100.0 nM
[18] = tested on: Mast/stem cell growth factor receptor Kit (Homo sapiens), P10721 [D816V]; settings: Compound concentration 100.0 nM
[19] = target: Serine/threonine-protein kinase 17A (Homo sapiens) (UniProt Q9UEE5); settings: Compound concentration 100.0 nM
[20] = target: Ribosomal protein S6 kinase alpha-6 (Homo sapiens) (UniProt Q9UK32); settings: Compound concentration 100.0 nM
[21] = target: ALK tyrosine kinase receptor (Homo sapiens) (UniProt Q9UM73); settings: Compound concentration 100.0 nM
[22] = target: Serine/threonine-protein kinase SIK1 (Homo sapiens) (UniProt P57059); settings: Compound concentration 100.0 nM
[23] = target: Tyrosine-protein kinase CSK (Homo sapiens) (UniProt P41240); settings: Compound concentration 100.0 nM
[24] = tested on: Leucine-rich repeat serine/threonine-protein kinase 2 (Homo sapiens), Q5S007 [G2019S]; settings: Compound concentration 100.0 nM
[25] = target: Serine/threonine-protein kinase 16 (Homo sapiens) (UniProt O75716); settings: Compound concentration 100.0 nM
[26] = tested on: Proto-oncogene tyrosine-protein kinase receptor Ret (Homo sapiens), P07949 [V804M]; settings: Compound concentration 100.0 nM
[27] = target: STE20/SPS1-related proline-alanine-rich protein kinase (Homo sapiens) (UniProt Q9UEW8); settings: Compound concentration 100.0 nM
[28] = target: Non-receptor tyrosine-protein kinase TYK2 (Homo sapiens) (UniProt P29597); settings: Compound concentration 100.0 nM
[29] = target: Tyrosine-protein kinase SYK (Homo sapiens) (UniProt P43405); settings: Compound concentration 100.0 nM
[30] = target: Glycogen synthase kinase-3 beta (Homo sapiens) (UniProt P49841); settings: Compound concentration 100.0 nM
[31] = target: Beta-3 adrenergic receptor (Homo sapiens) (UniProt P13945); settings: Compound concentration 10.0 uM
[32] = target: Serine/threonine-protein kinase NLK (Homo sapiens) (UniProt Q9UBE8); settings: Compound concentration 100.0 nM
[33] = target: LIM domain kinase 1 (Homo sapiens) (UniProt P53667); settings: Compound concentration 100.0 nM
[34] = target: TRAF2 and NCK-interacting protein kinase (Homo sapiens) (UniProt Q9UKE5); settings: Compound concentration 100.0 nM
[35] = target: Serine/threonine-protein kinase PLK3 (Homo sapiens) (UniProt Q9H4B4); settings: Compound concentration 100.0 nM

Sequence of Ribosomal protein S6 kinase alpha-6 (Homo sapiens) (Q9UK32 whole entry): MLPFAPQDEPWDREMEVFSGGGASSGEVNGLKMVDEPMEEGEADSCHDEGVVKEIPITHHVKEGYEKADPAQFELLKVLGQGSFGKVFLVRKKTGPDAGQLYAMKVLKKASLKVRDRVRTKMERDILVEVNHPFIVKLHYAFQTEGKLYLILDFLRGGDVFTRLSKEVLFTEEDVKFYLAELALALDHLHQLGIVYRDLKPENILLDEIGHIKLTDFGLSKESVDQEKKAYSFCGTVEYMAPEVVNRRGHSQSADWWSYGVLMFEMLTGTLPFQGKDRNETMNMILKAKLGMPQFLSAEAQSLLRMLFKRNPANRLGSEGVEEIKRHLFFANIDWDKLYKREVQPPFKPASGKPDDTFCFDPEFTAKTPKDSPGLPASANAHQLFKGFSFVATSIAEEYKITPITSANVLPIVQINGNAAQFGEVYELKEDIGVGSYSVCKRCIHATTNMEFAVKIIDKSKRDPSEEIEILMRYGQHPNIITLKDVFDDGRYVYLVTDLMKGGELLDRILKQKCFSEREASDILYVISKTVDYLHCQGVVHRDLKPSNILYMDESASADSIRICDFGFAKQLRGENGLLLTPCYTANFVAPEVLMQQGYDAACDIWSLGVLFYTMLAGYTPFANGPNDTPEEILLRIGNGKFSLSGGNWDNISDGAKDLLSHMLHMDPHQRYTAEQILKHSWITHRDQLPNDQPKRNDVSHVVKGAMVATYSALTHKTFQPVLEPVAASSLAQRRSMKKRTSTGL
Sequence of Serine/threonine-protein kinase 4 (Homo sapiens) (Q13043 whole entry): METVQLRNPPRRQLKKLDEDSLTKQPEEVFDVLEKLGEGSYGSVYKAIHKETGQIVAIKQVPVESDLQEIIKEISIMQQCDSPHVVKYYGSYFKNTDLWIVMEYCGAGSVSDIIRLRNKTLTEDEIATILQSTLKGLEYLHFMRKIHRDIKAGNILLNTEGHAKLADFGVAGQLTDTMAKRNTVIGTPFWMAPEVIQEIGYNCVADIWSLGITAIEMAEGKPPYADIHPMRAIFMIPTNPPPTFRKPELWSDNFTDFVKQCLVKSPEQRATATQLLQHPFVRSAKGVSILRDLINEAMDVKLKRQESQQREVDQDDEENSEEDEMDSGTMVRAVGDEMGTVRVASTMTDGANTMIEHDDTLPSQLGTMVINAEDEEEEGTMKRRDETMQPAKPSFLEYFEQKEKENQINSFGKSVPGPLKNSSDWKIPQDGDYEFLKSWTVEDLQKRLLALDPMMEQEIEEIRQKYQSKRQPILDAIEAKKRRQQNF
Sequence of Tyrosine-protein kinase Mer (Homo sapiens) (Q12866 whole entry): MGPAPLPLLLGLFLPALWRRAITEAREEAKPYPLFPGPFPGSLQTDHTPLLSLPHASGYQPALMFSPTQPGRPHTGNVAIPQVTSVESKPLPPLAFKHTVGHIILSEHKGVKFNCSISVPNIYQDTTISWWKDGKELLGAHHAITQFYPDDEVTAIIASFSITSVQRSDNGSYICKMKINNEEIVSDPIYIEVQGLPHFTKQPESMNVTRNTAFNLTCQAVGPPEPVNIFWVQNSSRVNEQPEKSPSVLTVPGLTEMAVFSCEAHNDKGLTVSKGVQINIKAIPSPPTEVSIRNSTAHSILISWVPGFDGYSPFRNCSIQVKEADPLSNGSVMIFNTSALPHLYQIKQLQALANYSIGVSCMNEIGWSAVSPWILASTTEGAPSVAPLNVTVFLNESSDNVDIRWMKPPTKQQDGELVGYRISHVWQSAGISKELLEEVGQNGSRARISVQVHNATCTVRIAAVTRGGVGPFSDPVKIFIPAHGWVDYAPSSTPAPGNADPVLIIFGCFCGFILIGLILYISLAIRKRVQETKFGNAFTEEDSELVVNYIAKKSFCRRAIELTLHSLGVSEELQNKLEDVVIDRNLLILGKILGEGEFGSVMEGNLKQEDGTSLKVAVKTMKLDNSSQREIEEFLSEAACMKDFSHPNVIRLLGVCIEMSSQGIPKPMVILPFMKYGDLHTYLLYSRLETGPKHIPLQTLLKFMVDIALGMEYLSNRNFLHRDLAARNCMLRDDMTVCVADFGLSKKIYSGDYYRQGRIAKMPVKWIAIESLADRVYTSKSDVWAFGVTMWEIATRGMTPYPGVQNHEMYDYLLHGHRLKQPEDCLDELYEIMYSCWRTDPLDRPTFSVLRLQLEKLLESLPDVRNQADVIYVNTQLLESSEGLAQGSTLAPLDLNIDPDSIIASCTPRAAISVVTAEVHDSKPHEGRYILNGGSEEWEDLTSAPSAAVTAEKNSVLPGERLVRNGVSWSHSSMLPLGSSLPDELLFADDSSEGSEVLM
Sequence of Megakaryocyte-associated tyrosine-protein kinase (Homo sapiens) (P42679 whole entry): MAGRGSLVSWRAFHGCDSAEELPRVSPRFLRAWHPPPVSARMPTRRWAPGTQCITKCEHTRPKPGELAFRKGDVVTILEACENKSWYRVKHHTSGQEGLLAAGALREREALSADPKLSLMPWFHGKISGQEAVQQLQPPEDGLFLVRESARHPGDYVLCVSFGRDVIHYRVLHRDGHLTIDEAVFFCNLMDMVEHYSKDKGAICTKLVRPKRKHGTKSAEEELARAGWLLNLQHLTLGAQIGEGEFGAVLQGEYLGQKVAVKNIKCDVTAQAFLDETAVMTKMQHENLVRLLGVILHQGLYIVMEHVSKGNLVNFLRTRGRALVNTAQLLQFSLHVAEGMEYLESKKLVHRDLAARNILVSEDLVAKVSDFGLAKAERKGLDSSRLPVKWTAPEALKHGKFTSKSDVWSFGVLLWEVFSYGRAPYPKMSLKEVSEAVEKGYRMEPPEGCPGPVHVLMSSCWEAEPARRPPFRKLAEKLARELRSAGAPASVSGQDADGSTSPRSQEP
Sequence of Muscle, skeletal receptor tyrosine-protein kinase (Homo sapiens) (O15146 whole entry): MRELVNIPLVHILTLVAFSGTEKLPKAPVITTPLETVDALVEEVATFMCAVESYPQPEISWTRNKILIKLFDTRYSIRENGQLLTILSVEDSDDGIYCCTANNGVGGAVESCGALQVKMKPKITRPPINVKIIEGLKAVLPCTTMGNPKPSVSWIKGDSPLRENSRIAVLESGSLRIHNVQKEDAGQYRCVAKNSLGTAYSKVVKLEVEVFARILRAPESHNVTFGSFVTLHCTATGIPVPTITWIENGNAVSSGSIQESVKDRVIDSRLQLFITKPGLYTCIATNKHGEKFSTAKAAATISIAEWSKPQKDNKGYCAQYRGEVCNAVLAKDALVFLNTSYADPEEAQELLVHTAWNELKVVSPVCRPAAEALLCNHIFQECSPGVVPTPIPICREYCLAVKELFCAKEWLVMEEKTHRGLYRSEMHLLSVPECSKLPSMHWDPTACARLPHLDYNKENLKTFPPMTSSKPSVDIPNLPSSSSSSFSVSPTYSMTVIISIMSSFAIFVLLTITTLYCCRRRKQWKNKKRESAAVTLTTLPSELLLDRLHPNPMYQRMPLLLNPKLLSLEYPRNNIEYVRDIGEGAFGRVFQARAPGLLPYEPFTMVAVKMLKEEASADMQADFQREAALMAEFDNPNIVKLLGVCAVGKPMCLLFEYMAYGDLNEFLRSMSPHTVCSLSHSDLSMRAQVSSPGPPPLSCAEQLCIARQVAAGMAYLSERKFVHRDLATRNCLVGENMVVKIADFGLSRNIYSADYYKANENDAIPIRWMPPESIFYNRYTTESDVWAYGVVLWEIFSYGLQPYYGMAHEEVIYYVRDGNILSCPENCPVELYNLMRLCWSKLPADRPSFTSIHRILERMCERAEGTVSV
Sequence of Serine/threonine-protein kinase NLK (Homo sapiens) (Q9UBE8 whole entry, the tested form may be a part): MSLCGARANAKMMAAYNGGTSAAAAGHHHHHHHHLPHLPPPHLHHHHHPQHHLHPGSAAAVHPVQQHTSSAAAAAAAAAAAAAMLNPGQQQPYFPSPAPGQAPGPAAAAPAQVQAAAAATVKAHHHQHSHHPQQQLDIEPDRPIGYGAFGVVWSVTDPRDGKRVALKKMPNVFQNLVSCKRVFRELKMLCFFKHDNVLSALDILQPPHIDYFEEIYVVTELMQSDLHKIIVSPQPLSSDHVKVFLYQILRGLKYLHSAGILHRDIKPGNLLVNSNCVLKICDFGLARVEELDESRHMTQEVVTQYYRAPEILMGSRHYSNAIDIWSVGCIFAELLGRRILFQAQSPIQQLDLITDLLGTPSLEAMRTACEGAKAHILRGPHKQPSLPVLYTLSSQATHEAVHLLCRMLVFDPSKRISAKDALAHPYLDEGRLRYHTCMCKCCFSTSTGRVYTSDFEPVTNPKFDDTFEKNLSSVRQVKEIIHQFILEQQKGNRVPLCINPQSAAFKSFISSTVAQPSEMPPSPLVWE
Sequence of Glycogen synthase kinase-3 beta (Homo sapiens) (P49841 whole entry, looked up): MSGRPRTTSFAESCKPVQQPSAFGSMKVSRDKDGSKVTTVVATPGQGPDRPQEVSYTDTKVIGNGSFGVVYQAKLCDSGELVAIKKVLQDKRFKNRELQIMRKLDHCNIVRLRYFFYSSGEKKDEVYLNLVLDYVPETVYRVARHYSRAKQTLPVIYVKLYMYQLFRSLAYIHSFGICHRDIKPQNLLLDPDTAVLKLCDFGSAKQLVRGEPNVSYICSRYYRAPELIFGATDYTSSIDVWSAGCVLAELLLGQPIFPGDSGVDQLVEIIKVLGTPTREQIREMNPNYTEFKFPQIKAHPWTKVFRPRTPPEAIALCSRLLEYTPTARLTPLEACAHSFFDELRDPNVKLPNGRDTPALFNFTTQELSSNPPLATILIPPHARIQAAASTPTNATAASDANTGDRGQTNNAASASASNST
Sequence of Tyrosine-protein kinase CSK (Homo sapiens) (P41240 2-450 limits assumed): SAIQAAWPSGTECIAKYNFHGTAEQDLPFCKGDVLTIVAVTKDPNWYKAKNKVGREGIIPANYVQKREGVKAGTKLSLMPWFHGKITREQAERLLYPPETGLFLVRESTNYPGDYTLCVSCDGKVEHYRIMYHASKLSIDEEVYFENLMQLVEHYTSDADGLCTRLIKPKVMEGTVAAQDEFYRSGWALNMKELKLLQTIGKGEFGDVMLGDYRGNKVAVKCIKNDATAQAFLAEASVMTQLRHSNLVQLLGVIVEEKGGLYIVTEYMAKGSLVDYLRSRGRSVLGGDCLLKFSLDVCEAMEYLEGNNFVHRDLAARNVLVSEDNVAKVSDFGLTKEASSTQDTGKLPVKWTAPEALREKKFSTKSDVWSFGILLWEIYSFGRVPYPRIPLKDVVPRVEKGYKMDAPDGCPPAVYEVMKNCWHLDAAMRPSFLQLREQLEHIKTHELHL

Cc1c[nH]c2nccc(Oc3c(F)cc(Nc4cc(Cl)nc(N)n4)cc3F)c12 [BAY-549]
inactive: residual activity [1] 100% | residual activity [2] 94% | residual activity [3] 96% | residual activity [4] 97% | residual activity [5] 96% | residual activity [6] 96% | residual activity [7] 88% | residual activity [8] 100% | residual activity [9] 100% | residual activity [10] 82% | residual activity [11] 100% | residual activity [12] 91% | residual activity [13] 96% | residual activity [14] 88% | residual activity [15] 61% | residual activity [16] 100% | residual activity [17] 91% | residual activity [18] 100% | residual activity [19] 100% | residual activity [20] 99% | residual activity [21] 95% | residual activity [22] 98% | residual activity [23] 87% | residual activity [24] 100% | residual activity [25] 87% | residual activity [26] 100% | residual activity [27] 94% | residual activity [28] 78% | residual activity [29] 100% | residual activity [30] 98% | inhibition [31] 22% | residual activity [32] 100% | residual activity [33] 87% | residual activity [34] 100% | residual activity [35] 83%

Cn1cc(Cl)c2c(Oc3c(F)cc(Nc4cc(Cl)nc(N)n4)cc3F)ccnc21 [BAY-4900]
inactive: residual activity [1] 100% | residual activity [2] 83% | residual activity [3] 91% | residual activity [4] 83% | residual activity [5] 100% | residual activity [6] 100% | residual activity [7] 98% | residual activity [8] 90% | residual activity [9] 100% | residual activity [10] 84% | residual activity [11] 94% | residual activity [12] 94% | residual activity [13] 88% | residual activity [14] 97% | residual activity [15] 74% | residual activity [16] 100% | residual activity [17] 100% | residual activity [18] 97% | residual activity [19] 94% | residual activity [20] 100% | residual activity [21] 89% | residual activity [22] 100% | residual activity [23] 100% | residual activity [24] 100% | residual activity [25] 100% | residual activity [26] 95% | residual activity [27] 100% | residual activity [28] 81% | residual activity [29] 100% | residual activity [30] 90% | inhibition [31] 3.48% | residual activity [32] 100% | residual activity [33] 90% | residual activity [34] 96% | residual activity [35] 98%
